# Patent publication US20180200257A1, “METHODS FOR THE TREATMENT OF INFLAMMATORY DISORDERS” (Galapagos NV, priority 2015, published 2018)
# How the values were obtained:
# [1] = system: subjects with moderately to severely active RA who have an inadequate response to methotrexate (MTX); test: Study 2 (monotherapy) - Subject VAS mean changes (ACR patient assessment); format: in vivo, human; settings: LOCF, 12 weeks results
# Method: The scale is 100 mm, the decrease in mm is shown. […] (dotted line), 100 mg q.d. (dashed line) or 200 mg q.d. (dark solid line). The results shown in the figures are calculated using Last-Observation-Carried-Forward (LOCF), which handles missing data by assigning the value recorded at the patient's last visit to all subsequent missed visits.
# Randomized, double-blind, placebo-controlled, multicenter, phase IIb dose finding study of Compound 1 (dosed as a [Compound 1:HCl:3H2O]) administered for 24 weeks as monotherapy to subjects with moderately to severely active rheumatoid arthritis who have an inadequate response to methotrexate alone
# Double-blind, placebo-controlled, monotherapy study in subjects with moderately to severely active RA who have an inadequate response to methotrexate (MTX) (oral or parenteral).
# 280 subjects randomized to one of 3 doses of Compound 1 (dosed as a [Compound 1:HCl:3H2O]) or to placebo, given once daily (q.d.).
# Twelve weeks of treatment with Compound 1 (dosed as a [Compound 1:HCl:3H2O]) at 50 mg, 100 mg, or 200 mg q.d.; or placebo. At Week 12, all subjects on placebo and the subjects on the 50 mg dose who have not achieved 20% improvement in swollen joint count (SJC66) and tender joint count (TJC68) will be assigned to 100 mg q.d. in a blinded fashion and will continue treatment until Week 24. Subjects in the other groups will maintain their randomized treatment until Week 24.
# Firstly, the patient is asked to make a vertical mark on a 100 mm Visual Analog Scale (VAS) corresponding to their general health or global disease activity on a touch screen to measure the VAS value, which is used in the formula below.
# The American College of Rheumatology (ACR) composite score, which evaluates clinical improvement relative to an initial assessment, is a commonly accepted efficacy end point for clinical trials in patients with rheumatoid arthritis. The ACR score correspond to a percentage improvement in pre-set parameters, and therefore measures the evolution of the disease in a patient. For example, ACR20 denotes at least 20% improvement in tender and swollen joint counts and in three of the following end points: global assessment by the patient, global assessment by the doctor, C reactive protein (CRP), patient's pain Visual Analogue Scale and Health Assessment Questionnaire Score. The number of swollen joints, ESR and CRP correlate with radiographic progression of joint damage, whereas tender joint counts, as well as global assessments by doctors and patients, and patients' reports of pain, are sensitive to change in clinical outcomes. Physical function, as assessed by the Health Assessment Questionnaire Score, is a potent predictor of the risk of disability in rheumatoid arthritis (Felson and American College of Rheumatology Committee to Reevaluate Improvement Criteria, 2007; Felson et al., 1993).
# [2] = system: Subjects With Active Crohn's Disease With Evidence of Mucosal Ulceration; test: Study 3 - Fecal calprotectin levels; format: in vivo, human; settings: 200 mg; week 10; LOCF
# From the text: Double-Blind, Randomized, Placebo-Controlled, Multi-Centre Study to Investigate the Efficacy and Safety of Compound 1 in Subjects With Active Crohn's Disease With Evidence of Mucosal Ulceration.
# This is a double-blind, randomized, placebo-controlled, multi-centre Phase 2 study to investigate the efficacy and safety of Compound 1 administered once daily for the treatment of active CD with evidence of mucosal ulceration. The pharmacokinetics (including a PK substudy) and pharmacodynamics of Compound 1 and metabolite in CD will also be characterised.
# A total of 180 eligible subjects will be randomized to receive Compound 1 or placebo in addition to their stable background treatment (eg, corticosteroids, aminosalicylates, or CD-related antibiotics). The study will consist of 2 parts, with total treatment duration of 20 weeks. Randomization in Part 1 will be stratified according the subject's previous anti-TNF exposure/response, CRP level at Screening, and oral corticosteroid use at visit Day −1.
# After the first 10 weeks of treatment in Part 1, patients will be re-randomized for Part 2 as shown in the diagram below and will be stratified according to the subject's clinical response, previous anti-TNF exposure/response, and oral corticosteroid use at visit Day -1.
# Fecal calprotectin is a protein belonging to the S100 family and occurring in large amounts in neutrophil granulocytes, where it accounts for 5% of total proteins and 60% of cytoplasm proteins. When inflammatory processes occur, calprotectin is released due to the degranulation of neutrophil granulocytes.
# In bowel inflammation, calprotectin may be detected in the stool. The fecal levels provide direct information about the inflammation and is determined using a Calprest® enzyme immunoassay diagnostic kit (Eurospital Spa—Via Flavia 122-34147 Trieste—Italy; ref 9031).
compound,measurement,setting,value
"O=C(Nc1nc2cccc(-c3ccc(CN4CCS(=O)(=O)CC4)cc3)n2n1)C1CC1 [Compound 1, cyclopropanecarboxylic acid {5-[4-(1,1-dioxo-thiomorpholin-4-ylmethyl)-phenyl]-[1,2,4]triazolo[1,5-a]pyridin-2-yl}-amide]",Subject VAS mean changes (ACR patient assessment),"[1]; 50 mg q.d., week 0",0.0%
same,Subject VAS mean changes (ACR patient assessment),"[1]; 50 mg q.d., week 1",−12.3%
same,Subject VAS mean changes (ACR patient assessment),"[1]; 50 mg q.d., week 2",−17.3%
same,Subject VAS mean changes (ACR patient assessment),"[1]; 50 mg q.d., week 4",−19.3%
same,Subject VAS mean changes (ACR patient assessment),"[1]; 50 mg q.d., week 8",−23.6%
same,Subject VAS mean changes (ACR patient assessment),"[1]; 50 mg q.d., week 12",−27.4%
same,Subject VAS mean changes (ACR patient assessment),"[1]; 100 mg q.d., week 0",0.0%
same,Subject VAS mean changes (ACR patient assessment),"[1]; 100 mg q.d., week 1",−12.2%
same,Subject VAS mean changes (ACR patient assessment),"[1]; 100 mg q.d., week 2",−17.2%
same,Subject VAS mean changes (ACR patient assessment),"[1]; 100 mg q.d., week 4",−21.3%
same,Subject VAS mean changes (ACR patient assessment),"[1]; 100 mg q.d., week 8",−29.2%
same,Subject VAS mean changes (ACR patient assessment),"[1]; 100 mg q.d., week 12",−29.8%
same,Subject VAS mean changes (ACR patient assessment),"[1]; 200 mg q.d., week 0",0.0%
same,Subject VAS mean changes (ACR patient assessment),"[1]; 200 mg q.d., week 1",−14.8%
same,Subject VAS mean changes (ACR patient assessment),"[1]; 200 mg q.d., week 2",−19.9%
same,Subject VAS mean changes (ACR patient assessment),"[1]; 200 mg q.d., week 4",−25.0%
same,Subject VAS mean changes (ACR patient assessment),"[1]; 200 mg q.d., week 8",−30.3%
same,Subject VAS mean changes (ACR patient assessment),"[1]; 200 mg q.d., week 12",−28.8%
same,"Fecal calprotectectin normalizing high to normal (<50 mg/kg), % subjects normalizing",[2],12%
same,"Fecal calprotectectin normalizing high to normal (>250 mg/kg to ≤250 mg/kg), % subjects normalizing",[2],44%
same,"Fecal calprotectin mean, % CFB",[2],73%
same,"Fecal calprotectin mean, CFB",[2],-86.7 mg/kg
same,"Fecal calprotectin median, % CFB",[2],−29%
same,"Fecal calprotectin median, CFB",[2],-75.5 mg/kg
